# Measured values reported in BindingDB's records for doi:10.1016/j.bioorg.2017.05.009 (Kinnaird College for Women, 2017).
# Biological target: Alpha-glucosidase MAL32 (Saccharomyces cerevisiae, UniProt P38158)
# Assay: α-Glucosidase Inhibition Assay
# Details: pH 6.8; 37 °C
# Description: For α-glucosidase inhibition assay, α-glucosidase enzyme (Cat No. 5003-1KU Type I; isolated from Saccharomyces cereviciae) was used. Acarbose was the reference standard and Pierre's methodology was employed [Pierre et al., J. Clin. Chem., 24:208-211]. First absorbance was taken at 400 nm after the 10 min incubation of a mixture of phosphate buffer ([…], pH 6.8), test compound ([…], 0.5 mM) and enzyme ([…], 0.0234 units, Sigma Inc.). Later, […] of p-nitrophenyl-α-D-glucopyranoside (0.5 mM, code No. N1377 from Sigma Inc) was added. After 30 min incubation at 37 °C, the absorbance was retaken at 400 nm.
# Chain of Alpha-glucosidase MAL32 (P38158 whole entry): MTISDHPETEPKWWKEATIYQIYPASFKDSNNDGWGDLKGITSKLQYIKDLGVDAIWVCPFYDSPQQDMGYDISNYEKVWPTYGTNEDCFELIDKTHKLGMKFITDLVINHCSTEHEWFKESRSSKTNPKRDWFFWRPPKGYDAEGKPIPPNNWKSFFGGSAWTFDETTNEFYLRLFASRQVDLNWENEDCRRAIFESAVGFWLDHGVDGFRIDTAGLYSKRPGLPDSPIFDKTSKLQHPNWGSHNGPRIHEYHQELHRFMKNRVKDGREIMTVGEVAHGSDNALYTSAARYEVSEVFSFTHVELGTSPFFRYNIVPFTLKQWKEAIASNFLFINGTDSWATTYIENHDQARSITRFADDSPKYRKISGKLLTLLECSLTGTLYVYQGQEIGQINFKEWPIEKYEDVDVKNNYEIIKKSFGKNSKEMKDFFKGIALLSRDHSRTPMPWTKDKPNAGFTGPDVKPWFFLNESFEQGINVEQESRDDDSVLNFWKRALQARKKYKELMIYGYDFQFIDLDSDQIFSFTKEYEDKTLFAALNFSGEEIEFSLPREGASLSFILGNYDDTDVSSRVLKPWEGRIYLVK
row,IC50,SMILES
1,46.4 µM,"Cc1cc(C)cc(-n2c(-c3cn(-c4ccccc4)nc3C3=CC4C=CC=CC4OC3=O)nc(-c3ccccc3)c2-c2ccccc2)c1 (stereo not given) [3-(4-(1-(3,5-Dimethylphenyl)-4,5-diphenyl-1H-imidazol-2-yl)-1-phenyl-1H-pyrazol-3-yl)-4a,8a-dihydro-2H-chromen-2-one (3d)]"
2,34.3 µM,"O=C1OC2C=CC=CC2C=C1c1nn(-c2ccccc2)cc1-c1nc(-c2ccccc2)c(-c2ccccc2)n1-c1ccc(Br)cc1 (stereo not given) [3-(4-(1-(4-Bromophenyl)-4,5-diphenyl-1H-imidazol-2-yl)-1-phenyl-1H-pyrazol-3-yl)-4a,8a-dihydro-2H-chromen-2-one (3b)]"
3,12.7 µM,"O=C1OC2C=CC=CC2C=C1c1nn(-c2ccccc2)cc1-c1nc(-c2ccccc2)c(-c2ccccc2)n1-c1ccc(Cl)cc1 (stereo not given) [3-(4-(1-(4-Chlorophenyl)-4,5-diphenyl-1H-imidazol-2-yl)-1-phenyl-1H-pyrazol-3-yl)-4a,8a-dihydro-2H-chromen-2-one (3a)]"
4,25.4 µM,"COc1ccc(-n2c(-c3cn(-c4ccccc4)nc3C3=CC4C=CC=CC4OC3=O)nc(-c3ccccc3)c2-c2ccccc2)cc1 (stereo not given) [3-(4-(1-(4-Methoxyphenyl)-4,5-diphenyl-1H-imidazol-2-yl)-1-phenyl-1H-pyrazol-3-yl)-4a,8a-dihydro-2H-chromen-2-one (3c)]"
5,44.8 µM,"CCCn1c(-c2cn(-c3ccccc3)nc2C2=CC3C=CC=CC3OC2=O)nc(-c2ccccc2)c1-c1ccccc1 (stereo not given) [3-(4-(4,5-Diphenyl-1-propyl-1H-imidazol-2-yl)-1-phenyl-1Hpyrazol-3-yl)-4a,8a-dihydro-2H-chromen-2-one (3e)]"
6,5.64 µM,"Cc1cc(C)cc(-n2c(-c3cn(-c4ccccc4)nc3C3=CC4C=C(Br)C=CC4OC3=O)nc(-c3ccccc3)c2-c2ccccc2)c1 (stereo not given) [6-Bromo-3-(4-(1-(3,5-dimethylphenyl)-4,5-diphenyl-1Himidazol-2-yl)-1-phenyl-1H-pyrazol-3-yl)-4a,8a-dihydro-2Hchromen-2-one (3g)]"
7,5.21 µM,"O=c1oc2ccc(Br)cc2cc1-c1nn(-c2ccccc2)cc1-c1nc(-c2ccccc2)c(-c2ccccc2)n1-c1ccc(Br)cc1 [6-Bromo-3-(4-(1-(4-bromophenyl)-4,5-diphenyl-1H-imidazol-2-yl)-1-phenyl-1H-pyrazol-3-yl)-2H-chromen-2-one (3j)]"
8,2.53 µM,"O=c1oc2ccc(Br)cc2cc1-c1nn(-c2ccccc2)cc1-c1nc(-c2ccccc2)c(-c2ccccc2)n1-c1ccc(Cl)cc1 [6-Bromo-3-(4-(1-(4-chlorophenyl)-4,5-diphenyl-1H-imidazol-2-yl)-1-phenyl-1H-pyrazol-3-yl)-2H-chromen-2-one (3f)]"
9,9.27 µM,"COc1ccc(-n2c(-c3cn(-c4ccccc4)nc3-c3cc4cc(Br)ccc4oc3=O)nc(-c3ccccc3)c2-c2ccccc2)cc1 [6-Bromo-3-(4-(1-(4-methoxyphenyl)-4,5-diphenyl-1Himidazol-2-yl)-1-phenyl-1H-pyrazol-3-yl)-2H-chromen-2-one (3h)]"
10,5.83 µM,"Cc1ccc(-n2c(-c3cn(-c4ccccc4)nc3-c3cc4cc(Br)ccc4oc3=O)nc(-c3ccccc3)c2-c2ccccc2)cc1 [6-Bromo-3-(4-(4,5-diphenyl-1-(p-tolyl)-1H-imidazol-2-yl)-1-phenyl-1H-pyrazol-3-yl)-2H-chromen-2-one (3i)]"
